What was measured:
[1] = system: ethanol/HCl-induced gastric lesions; experiment: Ethanol/HCl-induced gastric lesion (ulcer) model in mice; type: in vivo; settings: for Gastroprotective effect: Lesion index: mean ± SD
Description: The gastroprotective activity of the compounds was determined in the ethanol/HCl-induced lesion model in mice. The purity of the tested compounds was higher than 95% by NMR analysis. Male Swiss albino mice weighing 30 ± 3 g were used. Animals were fed on certified Champion diet with free access to water under standard conditions of 12 h dark-light period, 50% relative humidity and 22 °C room temperature. Mice were randomly distributed into groups of eight animals each and fasted for 24 h with free access to water previous to the experiment. Fasting prior to ulcerogenic assays was used because 0.2 mL of the reference antisecretory drug lansoprazole (2-[[[3-methyl-4-(2,2,2-trifluroethoxy)-2-pyridyl]methyl]sulfinyl]benzimidazole) and the amides were administered orally. To keep the animal number to a minimum, dose-response studies were performed with the leucine derivatives 13 and 18 to set the conditions for single-dose comparison of gastroprotective effect. For the selected parent compounds, three doses were used: 25, 50 and 100 mg/kg. Fifty min after oral administration of the compounds, lansoprazole (20 mg/kg) or the vehicle (12% Tween 80, 10 mL/kg), all groups were orally treated with 0.2 mL of a solution containing 60% ethanol/0.3 M HCl (ethanol/HCl) for gastric lesion induction. Animals were sacrificed by cervical dislocation 1 h after the administration of ethanol/HCl, and the stomachs excised and inflated by injection of 5% formalin (1 mL). The ulcerated stomachs were fixed in 5% formalin for 30 min and opened along the greater curvature. The length (mm) of each lesion was measured, and the lesion index expressed as the sum of the length of all lesions. For comparison purposes, the products 1-5, 7-12, 14-16, 19 and 20 were assessed at a single oral dose of 25 mg/kg. The protocols were approved by the Universidad de Talca Institutional Animal Care and Use Committee, which follows the recommendations of the Canadian Council on Animal Care. Tween 80 and lansoprazole (> 98% purity by HPLC) were purchased from Sigma Chemical Co.
Results were expressed as the mean ± SD. In all experiments, statistical differences between several treatments and their respective control were determined by one-way analysis of variance (ANOVA) and when the F value was significant, post hoc differences were determined by the Dunnett's multiple comparison test. The level of significance was set at P < 0.05. All statistical analyses were performed using the software Statistica 5.1 (StatSoft, Inc.) and Statistical Package S-Plus 2000.

[2] = Cytotoxicity, neutral red uptake assay, MRC-5; type: cell-based; settings: human, MRC-5 normal lung fibroblasts, confluent monolayers, confluent cultures, 0-1000 µM, mean ± SD
Description: (§1) Human normal lung fibroblasts MRC-5 (ATCC CCL-171) and Hep G2 cells (ATCC HB-8065) were grown as monolayers in minimum essential Eagle´s medium (MEM), with Earle's salts, 2.0 mM L-glutamine (Sigma Chemical Co.) and 2.0 g/L sodium bicarbonate (Sigma Chemical Co.), supplemented with 10% heat-inactivated fetal bovine serum (FBS), 100 IU/mL penicillin and 100 µg/mL streptomycin in a humidified incubator with 5% CO2 in air at 37 °C. Cell passage was maintained between 10 and 16 for MRC-5 and between 79 and 82 for Hep G2 cells. The medium was changed every 2 days. Culture media, antibiotics and FBS were obtained from Invitrogen Corp.
(§2) Confluent cultures of MRC-5, AGS and Hep G2 cells were treated with medium containing the compounds at concentrations ranging from 0 up to 1000 µM. The products were first dissolved in DMSO and then in the corresponding culture medium supplemented with 2% FBS. The final content of DMSO in the test medium and controls was 1%. Cells were exposed for 24 h to the assayed compounds. Untreated cells served as controls. Each concentration was tested in quadruplicate together with the control and repeated three times in separate experiments. At the end of the incubation, the neutral red uptake (NRU) assay was carried out to determine cell viability. To calculate the IC50 values (concentration that produces a 50% inhibitory effect on the evaluated parameter) the results were transformed to percentage of controls and the IC50 value was graphically obtained from the dose-response curves.

[3] = Cytotoxicity, neutral red uptake assay, AGS; type: cell-based; settings: human, AGS gastric adenocarcinoma cells, confluent monolayers, confluent cultures, 0-1000 µM, mean ± SD
Description: as §2, with “Human gastric adenocarcinoma cells AGS (ATCC CRL-1739) were grown as monolayers in Ham F-12 medium containing 1.0 mM L-glutamine and 1.5 g/L sodium bicarbonate, supplemented with 10% heat-inactivated FBS, 100 IU/mL penicillin and 100 µg/mL streptomycin in a humidified incubator with 5% CO2 in air at 37 °C. The cell passage was maintained between 42 and 48. The medium was changed every 2 days. Confluent” for “Confluent”

[4] = Cytotoxicity, neutral red uptake assay, Hep G2; type: cell-based; settings: human, Hep G2 cells, confluent monolayers, confluent cultures, 0-1000 µM, mean ± SD
Description: as §1, §2

[5] = Mus musculus, po, single oral dose 25 mg/kg, compared with untreated controls, read-out: Gastroprotective effect: % Lesion reduction
[6] = single oral dose 25 mg/kg, sum of lesion lengths

| SMILES | inhibition in vivo at 25 mg/kg [1, 5] | gastric lesion reduction at the higher doses ([1]; dose-response study, higher oral doses (50 and 100 mg/kg)) | Gastroprotective effect: Lesion index ([1]; single oral dose 25 mg/kg, sum of lesion lengths, 25 mg/kg) | IC50 at 24 h [2] | IC50 at 24 h [3] | IC50 at 24 h [4] | Gastroprotective effect: Lesion index [1, 6] | inhibition in vivo at 20 mg/kg ([1]; Mus musculus, po, reference drug at 20 mg/kg oral, compared with untreated controls, read-out: Gastroprotective effect: % Lesion reduction) | Gastroprotective effect: Lesion index ([1]; reference drug at 20 mg/kg oral, 20 mg/kg) | Gastroprotective effect: Lesion index ([1]; reference drug at 20 mg/kg oral, listed as lansoprazole, 20 mg/kg) |
| --- | --- | --- | --- | --- | --- | --- | --- | --- | --- | --- |
| C=C1CCC2[C@](C)(CCC[C@]2(C)C(=O)N[C@@H](CC(C)C)C(=O)OC)[C@H]1CC[C@@H](C)CC(=O)N[C@@H](CC(C)C)C(=O)OC (stereo partly shown) [Compound 18, Labd-8(17)-en-15,19-dioic acid, 15,19-dileucyl methyl ester amide] | ~49.6% | 79-89% | 23.2 ± 12.9 mm | 495 ± 35 µM | > 1000 µM | > 1000 µM |  |  |  |  |
| C=C1CCC2[C@](C)(CCC[C@]2(C)C(=O)N2CCC[C@H]2C(=O)OC)[C@H]1CC[C@@H](C)CC(=O)N1CCC[C@H]1C(=O)OC (stereo partly shown) [Compound 19, Labd-8(17)-en-15,19-dioic acid, 15,19-diprolyl methyl ester amide] | 87.8% |  |  | 267 ± 14 µM | 206 ± 10 µM | 316 ± 16 µM | 5.6 ± 3.2 mm |  |  |  |
| C=C1CCC2[C@](C)(CCC[C@]2(C)C(=O)N[C@@H](Cc2c[nH]c3ccccc23)C(=O)OCC)[C@H]1CC[C@@H](C)CC(=O)N[C@@H](Cc1c[nH]c2ccccc12)C(=O)OCC (stereo partly shown) [Compound 20, Labd-8(17)-en-15,19-dioic acid, 15,19-ditryptophanyl ethyl ester amide] | 68.9% |  |  | > 1000 µM | > 1000 µM | > 1000 µM | 14.3 ± 10.7 mm |  |  |  |
| Cc1c(OCC(F)(F)F)ccnc1C[S+]([O-])c1nc2ccccc2[nH]1 (stereo not shown) [Lansoprazole, 2-[[[3-methyl-4-(2,2,2-trifluroethoxy)-2-pyridyl]methyl]sulfinyl]benzimidazole, reference compound] |  |  |  | 306 ± 11 µM | 162 ± 6 µM | 221 ± 9 µM |  | 79.3% | 9.5 ± 2.5 mm | 9.5 ± 2.5 mm |

Reference: publication PMC6259277, “Synthesis, Gastroprotective Effect and Cytotoxicity of New Amino Acid Diterpene Monoamides and Diamides” (Molecules, 2010)
